{"source": "patent US8962600B2", "about": "“Neuroprotective compounds and their use” (The Medical College of Wisconsin, Inc., priority 2009, dated 2015)", "key": {"[1]": {"test_system": "tyrosine hydroxylase (TH)", "experiment": "Tyrosine hydroxylase expression in striatum and substantia nigra, Western blot and DAB immunostaining", "format": "in vivo, C57BL/6 mice", "method": "Six- to 8-week-old C57BL/6 mice weighing 24 to 28 g were housed in standard conditions of constant temperature (22±1° C.), humidity (relative, 30%), and a 12-h light/dark cycle. Mice were allowed free access to food and water. Use of the animals and protocol procedures were approved and supervised by the Committee on Animal Care at Iowa State University (Ames, Iowa). For neurodegeneration studies, mice either received diapocynin (300 mg/kg dose) by oral gavage for 1 day (pre-treatment before MPTP administration), 5 days (co-treatment with MPTP), or 7 days (post-treatment after MPTP).\nDAB immunostaining was performed in striatal and substantia nigra sections as described previously (57). In brief, 1 day or 7 days after final dosing of MPTP, mice were sacrificed and perfused with 4% PFA and post-fixed with PFA and 30% sucrose, respectively. Next, fixed brains were cut into 30 μm sections and kept in 30% sucrose-ethylene glycol solutions at −20° C. On the day of staining, sections were rinsed with PBS and incubated with either anti-TH (rabbit anti-mouse, 1:1800; Calbiochem, Gibstown, N.J.), anti-IBA-1 (goat anti-mouse, 1:1000; Dako), anti-GFAP (mouse anti-mouse, 1:1000; Millipore, Billerica, Mass.), or anti-gp91phox (mouse anti-mouse, 1:500; Santa Cruz Biotechnology) overnight at 4° C. […]"}, "IL-10": {"test_system": "IL-10", "experiment": "LPS-induced IL-10 release in primary microglia, LUMINEX immunoassay", "format": "cell-based, mouse", "conditions": "diapocynin 10 μM, LPS 24 hr", "method": "Primary microglia were obtained from 1-2 day old C57/b16 mouse pups. Upon collection, whole brains were kept in ice-cold DMEM-F12 medium containing 10% FBS, 1× sodium pyruvate, 1× NEAAs, 100 units pen/strep, and Q. After collection, the brains were placed in 0.25% trypsin-EDTA and incubated at 37° C., with gentle shaking every 5-10 min. After 30 min, the trypsin was removed, and the brains are washed in warmed medium twice. After washing, medium was added to the brains, and the brains were homogenized using gentle pipetting, starting with a 25 ml pipette and moving to smaller pipette tips as the brains were broken up. When the brains were sufficiently homogenized to a single-cell suspension, they were filtered with a 70 μm nylon filter, which allowed microglia and astrocytes to be collected. The resultant cell suspension was plated in T-75 flasks and allowed to grow for 12-14 days at 37° C., 5% CO2. […]\nCytokine levels of BV2 and microglial cells treated with diapocynin were determined by LUMINEX® multiplex immunoassay. […]\nCytokine standards and controls were adjusted to 40 μl volume and the LUMINEX® Samples were run on a LUMINEX® 200 Total System and analyzed with Multiplex Analysis—LUMINEX® Software (Invitrogen, Carlsbad, Calif.)."}}, "data": [{"smiles": "COc1cc(C(C)=O)cc(-c2cc(C(C)=O)cc(OC)c2O)c1O", "note": "[diapocynin]", "values": [{"measurement": "expression of TH in striatum and substantia nigra (Western blot)", "setting": "[1]; MPTP- and diapocynin-treated mice, 300 mg/kg oral gavage", "value": "less reduction"}, {"measurement": "loss of TH-positive neurons and terminals in striatum and substantia nigra (TH-DAB immunostaining)", "setting": "[1]; MPTP-treated mice with diapocynin treatment 300 mg/kg oral gavage", "value": "substantially prevented"}, {"measurement": "blocking LPS-induced release of IL-10", "setting": "IL-10", "value": "very effective"}]}]}
